This note sets out measurements from PubChem BioAssay (NCI).

The structures appear in SMILES notation.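 These data come from cells grown in 96-well plates and exposed to compound for 48 hours at five concentrations. At the TGI there is no net growth.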

Among the test systems are U251 CNS; NCI-H23 lung; HOP-92 NSCLC; UACC-62 melanoma; HL-60(TB) leukemia; SN12C renal; SNB-19 CNS; NCI-H460 lung; A549 NSCLC; MOLT-4 leukemia.
Test in all cases: NCI-60 cell line screen, 48 h

Turning to `O=c1nc(-c2ccccc2)cc(CC(O)c2ccc(Cl)c(Cl)c2)[nH]1` (stereo not given), the TGI in the experiment on U251 CNS was more than 100 µM; with NCI-H23 lung, more than 100 µM; with HOP-92 NSCLC it was more than 100 µM; in the experiment with UACC-62 melanoma, more than 100 µM; in the experiment with HL-60(TB) leukemia, 76 µM; in the experiment on SN12C renal, more than 100 µM. Also, the TGI in the experiment on SNB-19 CNS, in the experiment on NCI-H460 lung, with A549 NSCLC and with MOLT-4 leukemia was more than 100 µM each time.

On to `O=c1cc(-c2ccc(O)cc2)oc2cc(O[C@@H]3O[C@H](CO)[C@@H](O)[C@H](O)[C@H]3O)cc(O)c12`, for which the TGI with U251 CNS, in the experiment with NCI-H23 lung, in the experiment on HOP-92 NSCLC, with UACC-62 melanoma, in the experiment with HL-60(TB) leukemia and in the experiment on SN12C renal was more than 100 µM in each case. In addition, the TGI with SNB-19 CNS, in the experiment with NCI-H460 lung, with A549 NSCLC and in the experiment with MOLT-4 leukemia was more than 100 µM each time.

Turning to `Cc1cc(Cl)ccc1OCC(=O)Nc1nc(N)nc(N)n1`, the TGI with U251 CNS, in the experiment on NCI-H23 lung, in the experiment on HOP-92 NSCLC, in the experiment on UACC-62 melanoma, in the experiment on HL-60(TB) leukemia and in the experiment on SN12C renal was more than 100 µM throughout. For the same compound, the TGI in the experiment with SNB-19 CNS, with NCI-H460 lung, with A549 NSCLC and with MOLT-4 leukemia was more than 100 µM each time.
